Test results from patent US8440842B2, “Antimicrobial compounds, their synthesis and their use for treatment of mammalian infections” (Leibniz-Institut fuer Naturstoff-Forschung und …, priority 2007, dated 2013).
In brackets after ≈: the same amount, converted by molar mass.

Experiments:
[1] = system: HSRE resistant strain (multiresistant clinical isolate); assay: MIC and MBC, classical method (liquid Shkolnikova medium, Lowenstein-Jensen medium); format: cell-based, Mycobacterium tuberculosis
[2] = system: XTB strain (extremly resistant clinical isolate); assay: as above; format: cell-based, Mycobacterium tuberculosis

With `NNC(=O)c1ccncc1` [Isoniazid (INH), Isoniazid, reference compound] the MIC ([1]; HSRE resistant strain (multiresistant)) was “Not active” and the MIC ([2]; X TB strain (extremly resistant)) was “Not active”.
`CN(Cc1ccccc1)c1nc(=O)c2cc(C(F)(F)F)cc([N+](=O)[O-])c2s1` [Compound 5, 2-[Benzyl(methyl)amino]-8-nitro-6-(trifluoromethyl)-4H-1,3-benzothiazin-4-one] was tested, and the MBC ([1]; Mycobacterium tuberculosis) was 3.12 µg/mL (≈ 7.89 µM), the MIC ([1]; Mycobacterium tuberculosis) was 1.56 µg/mL (≈ 3.95 µM) and the MBC ([2]; Mycobacterium tuberculosis) was 3.12 µg/mL (≈ 7.89 µM). For the same compound, the MIC ([2]; Mycobacterium tuberculosis) was 1.56 µg/mL (≈ 3.95 µM).
Work on `CN(Cc1ccccc1)c1nc(=O)c2cc(Cl)cc([N+](=O)[O-])c2s1` [Compound 10, 2-[Benzyl(methyl)amino]-6-chloro-8-nitro-4H-1,3-benzothiazin-4-one] yielded an MBC ([1]; Mycobacterium tuberculosis) of 1.56 µg/mL (≈ 4.31 µM), an MIC ([1]; Mycobacterium tuberculosis) of 1.56 µg/mL (≈ 4.31 µM) and an MBC ([2]; Mycobacterium tuberculosis) of 0.39 µg/mL (≈ 1.08 µM). The MIC ([2]; Mycobacterium tuberculosis) was < 0.39 µg/mL.
`O=c1nc(NCc2ccccc2)sc2c([N+](=O)[O-])cc(C(F)(F)F)cc12` [Compound 8, 2-(Benzylamino)-8-nitro-6-(trifluoromethyl)-4H-1,3-benzothiazin-4-one] was tested, and the MBC ([1]; Mycobacterium tuberculosis) was 1.56 µg/mL (≈ 4.09 µM), the MIC ([1]; Mycobacterium tuberculosis) was 0.78 µg/mL (≈ 2.05 µM) and the MBC ([2]; Mycobacterium tuberculosis) was 1.56 µg/mL (≈ 4.09 µM). It also gave an MIC ([2]; Mycobacterium tuberculosis) of 0.78 µg/mL (≈ 2.05 µM).
